31 compounds from the Biogen ADME set (Fang et al. 2023) can be followed below.

In brackets after ≈: the same amount, converted by molar mass.

For this series the following is noted: for aqueous solubility: pH 6.8.

Turning to `Cc1ccc(Oc2ccc(Cl)cc2NC(=O)CN(C)CC(=O)N(C)C)cc1`, the MDR1-MDCK efflux ratio is 1.61; the fraction unbound, human plasma came out at 0.00885; the intrinsic clearance, human liver microsomes worked out at 1050 mL/min/kg; the intrinsic clearance, rat liver microsomes came out at 2420 mL/min/kg.

Take `CCCc1ccc(-c2cccc(C(=O)N3CCN(CC(N)=O)CC3)c2)cc1`: the MDR1-MDCK efflux ratio came to 8.27; the intrinsic clearance, human liver microsomes was 12.6 mL/min/kg; the intrinsic clearance, rat liver microsomes was 707 mL/min/kg.

Regarding `Cc1ncsc1C(=O)N1CCCCC1c1nc(N(C)C)ncc1-c1cccc(Cl)c1` (configuration not stated), the MDR1-MDCK efflux ratio worked out at 1.28; the fraction unbound, human plasma is 0.00826; the fraction unbound, rat plasma was 0.0105; the intrinsic clearance, human liver microsomes came to 236 mL/min/kg. Moreover, the intrinsic clearance, rat liver microsomes stood at 1200 mL/min/kg and the aqueous solubility (in general, the concentration that dissolves in the medium under given conditions) is 18.2 µg/mL (≈ 41.2 µM).

Regarding `CC(=O)NCCOc1ccc2ccccc2n1`, the intrinsic clearance, human liver microsomes was 12.9 mL/min/kg and the intrinsic clearance, rat liver microsomes was 89.1 mL/min/kg.

With `Nc1ccc2[nH]c(CCc3ccccc3)nc2c1`, the MDR1-MDCK efflux ratio turned out to be 1.27; the intrinsic clearance, human liver microsomes was no more than 4.74 mL/min/kg; the intrinsic clearance, rat liver microsomes is 28.8 mL/min/kg; the aqueous solubility was determined as 36.3 µg/mL (≈ 153 µM).

Take `COc1ccc(C(=O)c2ccccc2)c(Oc2nc3c(c(=O)n(C)c(=O)n3C)n2C)c1`: the MDR1-MDCK efflux ratio amounted to 1.83; the intrinsic clearance, human liver microsomes amounted to 21.5 mL/min/kg; the intrinsic clearance, rat liver microsomes was determined as 1510 mL/min/kg; the aqueous solubility was 49.3 µg/mL (≈ 117 µM).

In the case of `C[n+]1cc2c3c(ccc2c2ccc4cc5c(cc4c21)OCO5)OCO3`, the MDR1-MDCK efflux ratio was 13.5; the intrinsic clearance, human liver microsomes was determined as 8.23 mL/min/kg; the intrinsic clearance, rat liver microsomes was 58.2 mL/min/kg; the aqueous solubility came out at 32.2 µg/mL.

With `CCC(CC)NC(=O)c1cc(C)nc2onc(C)c12`, the MDR1-MDCK efflux ratio came to 1.34; the intrinsic clearance, human liver microsomes is no more than 4.74 mL/min/kg; the intrinsic clearance, rat liver microsomes is no more than 10.7 mL/min/kg; the aqueous solubility stood at 45.5 µg/mL (≈ 174 µM).

The compound `CN(C)c1ccnc(NCc2ccc(F)cc2)n1` showed an intrinsic clearance, human liver microsomes of 54 mL/min/kg and an intrinsic clearance, rat liver microsomes of 1790 mL/min/kg.

Regarding `CNC(=O)c1ccccc1Nc1nc(Nc2ccc(N3CCOCC3)cc2OC)ncc1Cl`, the MDR1-MDCK efflux ratio stood at 3.06; the intrinsic clearance, human liver microsomes is 14.9 mL/min/kg; the intrinsic clearance, rat liver microsomes turned out to be 95.1 mL/min/kg; the aqueous solubility was 1.95 µg/mL (≈ 4.15 µM).

For `Cc1nc(CC2CCN(S(=O)(=O)c3cn(C)cn3)CC2)cc(NC2CCCC2)n1`, the MDR1-MDCK efflux ratio is 37.4; the intrinsic clearance, human liver microsomes turned out to be 9.96 mL/min/kg; the intrinsic clearance, rat liver microsomes came out at 90.9 mL/min/kg; the aqueous solubility was 59.5 µg/mL (≈ 142 µM).

For `Cc1nccn1CCCN1C(=O)SC(C)(C)C1=O`, the MDR1-MDCK efflux ratio amounted to 2.51; the intrinsic clearance, human liver microsomes was no more than 4.74 mL/min/kg; the intrinsic clearance, rat liver microsomes is 83 mL/min/kg; the aqueous solubility came out at 29.2 µg/mL (≈ 109 µM).

`Cc1nnc(-c2ccccc2-c2c[nH]nc2C)s1` returned an aqueous solubility of 30.9 µg/mL (≈ 121 µM).

`CCc1nc(N2CC(CO)C2)c2ccsc2n1`: the MDR1-MDCK efflux ratio is 1.33; the intrinsic clearance, human liver microsomes is 10.7 mL/min/kg; the intrinsic clearance, rat liver microsomes was 50 mL/min/kg.

Take `Cc1ccc2c(c1)c(Cn1ccnc1-c1cccc(C)n1)nn2C`: the MDR1-MDCK efflux ratio was 0.679; the intrinsic clearance, human liver microsomes is 122 mL/min/kg; the intrinsic clearance, rat liver microsomes is 1920 mL/min/kg; the aqueous solubility turned out to be 32.9 µg/mL (≈ 103 µM).

On to `CCc1nc(C(N)=O)c(Nc2ccc(N3CCC(N4CCN(C)CC4)CC3)c(OC)c2)nc1NC1CCOCC1`, for which the MDR1-MDCK efflux ratio worked out at 133; the intrinsic clearance, human liver microsomes was determined as 15 mL/min/kg; the intrinsic clearance, rat liver microsomes amounted to 14.7 mL/min/kg; the aqueous solubility was determined as 36.3 µg/mL (≈ 65.7 µM).

For `CCCn1c(=O)c2c(nc3n2CCN3c2ccc(C)cc2)n(C)c1=O`, the aqueous solubility amounted to 0.15 µg/mL (≈ 0.442 µM).

In the case of `Cc1ccc(C(=O)NCCc2csc(C)n2)cn1`, the MDR1-MDCK efflux ratio amounted to 0.918; the intrinsic clearance, human liver microsomes is 7.45 mL/min/kg; the intrinsic clearance, rat liver microsomes turned out to be 11.3 mL/min/kg; the aqueous solubility is 40.4 µg/mL (≈ 155 µM).

As for `Clc1ccc(C2(c3ccc(-c4cn[nH]c4)cc3)CCNCC2)cc1`, the MDR1-MDCK efflux ratio is 99; the intrinsic clearance, human liver microsomes is no more than 4.74 mL/min/kg; the intrinsic clearance, rat liver microsomes is no more than 10.7 mL/min/kg; the aqueous solubility was found to be 18.5 µg/mL (≈ 54.8 µM).

Take `CC(=O)Nc1ccc2nc(C)cc(O)c2c1`: the MDR1-MDCK efflux ratio came to 1.55; the intrinsic clearance, human liver microsomes is no more than 4.74 mL/min/kg; the intrinsic clearance, rat liver microsomes is no more than 10.7 mL/min/kg; the aqueous solubility was determined as 38.7 µg/mL (≈ 179 µM).

As to `COc1ccc(Cl)cc1C(=O)NCCc1ccc(S(=O)(=O)NC(=O)NC2CCCCC2)cc1`, the MDR1-MDCK efflux ratio stood at 123; the fraction unbound, human plasma is 0.00121; the fraction unbound, rat plasma is 0.00114; the intrinsic clearance, human liver microsomes was determined as 28.7 mL/min/kg. Also, the intrinsic clearance, rat liver microsomes came to 535 mL/min/kg.

Regarding `Cc1ccc(C(=O)N(C)C)cc1NS(C)(=O)=O`, the MDR1-MDCK efflux ratio stood at 8.3; the intrinsic clearance, human liver microsomes is no more than 4.74 mL/min/kg; the intrinsic clearance, rat liver microsomes was no more than 10.7 mL/min/kg; the aqueous solubility is 50.3 µg/mL (≈ 196 µM).

`Cc1ccc2c(c1)cc(CNCCc1ccccc1)c1nnnn12`: the MDR1-MDCK efflux ratio was 0.45; the intrinsic clearance, human liver microsomes was 417 mL/min/kg; the intrinsic clearance, rat liver microsomes is 1770 mL/min/kg; the aqueous solubility was found to be 24.9 µg/mL (≈ 78.5 µM).

For the compound `CC(=O)N1CCN(CCNC(=O)N2CCc3sccc3C2)CC1`, the MDR1-MDCK efflux ratio came to 30.4; the intrinsic clearance, human liver microsomes is 10.1 mL/min/kg; the intrinsic clearance, rat liver microsomes came to 74.2 mL/min/kg; the aqueous solubility was determined as 55.8 µg/mL (≈ 166 µM).

For `CCOC1CCN(C(=O)Cn2c(=O)[nH]c3ccccc32)CC1`, the MDR1-MDCK efflux ratio came to 16.9; the intrinsic clearance, human liver microsomes was no more than 4.74 mL/min/kg; the intrinsic clearance, rat liver microsomes came to 20.2 mL/min/kg; the aqueous solubility amounted to 47.3 µg/mL (≈ 156 µM).

For `Clc1cnc(Oc2ccc3cn[nH]c3c2)nc1`, the intrinsic clearance, human liver microsomes worked out at 12.9 mL/min/kg and the intrinsic clearance, rat liver microsomes was found to be 27.5 mL/min/kg.

Turning to `CC[C@@H]1C(=O)N(C)c2cnc(-n3ccnc3-c3ccc(F)cc3)nc2N1c1ccn(C)n1`, the MDR1-MDCK efflux ratio was found to be 14.2; the intrinsic clearance, human liver microsomes worked out at 43.7 mL/min/kg; the intrinsic clearance, rat liver microsomes stood at 413 mL/min/kg.

Turning to `CCn1nccc1-c1cc(CC2CCNCC2)ncn1`, the MDR1-MDCK efflux ratio came to 54.7; the intrinsic clearance, human liver microsomes was no more than 4.74 mL/min/kg; the intrinsic clearance, rat liver microsomes is no more than 10.7 mL/min/kg; the aqueous solubility amounted to 37.3 µg/mL (≈ 137 µM).

For `Cc1cccn(Cc2cccc(C#N)c2)c1=O`, the MDR1-MDCK efflux ratio was found to be 0.69; the intrinsic clearance, human liver microsomes was no more than 4.74 mL/min/kg; the intrinsic clearance, rat liver microsomes stood at 28.8 mL/min/kg; the aqueous solubility came out at 30.9 µg/mL (≈ 138 µM).

Regarding `Cc1ccc(CNC(=O)CN2CCC(n3nnc4cc(C)ccc43)CC2)cc1`, the MDR1-MDCK efflux ratio came to 3.73; the intrinsic clearance, human liver microsomes was determined as 155 mL/min/kg; the intrinsic clearance, rat liver microsomes came to 1510 mL/min/kg; the aqueous solubility came out at 30.2 µg/mL (≈ 79.9 µM).

Regarding `Cc1cccc(-n2c(S)nnc2CNc2ccc(F)cc2)c1`, the MDR1-MDCK efflux ratio worked out at 2.44; the intrinsic clearance, human liver microsomes is 17.2 mL/min/kg; the intrinsic clearance, rat liver microsomes came out at 188 mL/min/kg; the aqueous solubility is 50.2 µg/mL (≈ 160 µM).
